Data set [1] concerns the target T1, rh-α-IDUA in GM01391 fibroblasts (Homo sapiens (Human), UniProt P35475). The data set can be described thus: Cell-based rh-α-IDUA stabilization: intracellular IDUA activity in GM01391 fibroblasts. The conditions noted are these: for enhancement of IDUA activity versus rh-α-IDUA alone / change of IDUA activity on co-treatment versus rh-α-IDUA alone: rh-α-IDUA 0.1 nM + compound 100 μM (100 aM/100 M [sic] in the source). The method, then:
(§1) FIG. 1. The cell-based rh-α-IDUA stabilization study of the compounds of Example 1/rh-α-IDUA in GM01391 fibroblasts. (A) Preliminary cell-based screening of compounds of Example 1 by the co-treatment of rh-α-IDUA (0.1 nM) with 12 or 27b ([…]); (B) A dose-dependent experiment for 12, 27a, or 27b with 1 nM of rh-α-IDUA; (C) Co-treatment of 12 and rh-α-IDUA (1 or 0.1 nM) on IDUA activity; and (D) 12/rh-α-IDUA co-treatment on HS reduction in cells. Each bar represents the mean±SD of three determinations. *P<0.05; **P<0.01; ***P<0.001 compared to rh-α-IDUA alone, as determined by one-way ANOVA with Dunnett post-hoc analysis.
To this purpose, GM01391 fibroblasts were treated with a combination of rh-α-IDUA (0.1 nM) and compounds 12, and 27a-c ([…]); or with rh-α-IDUA for 1 day, followed by a 1-day wash-out. To measure the intracellular IDUA activity, the corresponding cells were harvested and lysed before the incubation with the fluorogenic substrate. Results are illustrated in FIG. 1.

Data set [2] addresses recombinant human α-IDUA (rh-α-IDUA, Aldurazyme®) (Homo sapiens (Human), UniProt P35475). The data set is described as follows: IDUA inhibition assay (fluorogenic substrate 4MU-IdoA). The data set is classed as biochemical. The conditions noted are these: for IC50: apparent IC50 against rh-α-IDUA, 4-MU-IdoA substrate, pH 3.5. The method, then:
Compounds were mixed with recombinant human α-IDUA (rh-α-IDUA, Aldurazyme®, 1.2 nM as the final concentration) and the fluorogenic substrate, […] (4MU-IdoA; Cayman), at a final concentration of 100 μM in pH 3.5 buffer (50 mM NaOAc and 150 mM NaCl), then incubated in a 384-well microplate at 37° C. for 30 min. Stop solution (500 mM Na2CO3, pH 10.8) was added and fluorescence was read on a CLARIOstar® microplate reader (BMG LABTECH) at 355 nm excitation and 460 nm emission. Raw fluorescence counts were background subtracted, as defined by counts from substrate solution only. Inhibitory screening was performed and the active compounds were selected and further tested at lower concentration to determine their IC50 values and Ki values.
The compounds of Example 1 were evaluated on their inhibitory potential against rh-α-IDUA, and their apparent IC50 values were determined by using the fluorogenic substrates 4-methylumbelliferyl-α-iduronide (4-MU-IdoA) and results are shown in Table 1.

In data set [3] the target is rh-α-IDUA in GM02846 fibroblasts (Homo sapiens (Human), UniProt P35475). The data set can be described thus: Cell-based rh-α-IDUA stabilization: IDUA activity in GM02846 fibroblasts. The note with it: co-treatment with rh-α-IDUA. An excerpt: (§2) FIG. 2. The cell-based rh-α-IDUA stabilization study of 12/rh-α-IDUA in GM02846 fibroblasts. (A) IDUA activity, and (B) the reduction of HS; Each bar represents the mean±SD of three determinations. *P<0.05; **P<0.01; ***P<0.001 compared to rh-α-IDUA alone, as determined by one-way ANOVA with Dunnett post-hoc analysis.
Chain of rh-α-IDUA in GM02846 fibroblasts (P35475 26-653): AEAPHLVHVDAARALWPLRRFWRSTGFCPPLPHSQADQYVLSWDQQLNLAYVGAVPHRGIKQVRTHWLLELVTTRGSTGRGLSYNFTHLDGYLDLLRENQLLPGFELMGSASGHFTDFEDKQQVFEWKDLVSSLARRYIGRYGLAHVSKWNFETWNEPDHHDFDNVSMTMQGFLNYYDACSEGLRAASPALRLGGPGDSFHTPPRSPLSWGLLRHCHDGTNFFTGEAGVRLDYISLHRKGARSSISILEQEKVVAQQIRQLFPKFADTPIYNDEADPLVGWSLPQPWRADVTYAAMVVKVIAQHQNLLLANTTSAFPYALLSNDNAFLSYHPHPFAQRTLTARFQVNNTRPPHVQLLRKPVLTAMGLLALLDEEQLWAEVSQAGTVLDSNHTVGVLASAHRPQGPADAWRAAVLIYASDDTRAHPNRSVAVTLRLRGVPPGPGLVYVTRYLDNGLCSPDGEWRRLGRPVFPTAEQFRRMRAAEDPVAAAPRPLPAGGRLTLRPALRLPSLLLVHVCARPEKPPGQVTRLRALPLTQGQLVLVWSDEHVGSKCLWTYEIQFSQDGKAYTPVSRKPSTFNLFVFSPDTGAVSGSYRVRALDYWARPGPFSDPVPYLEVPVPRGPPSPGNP
(§3) HS of the in situ treated fibroblasts were extracted and chemically cleaved to generate HS disaccharides as the released biomarker, which could be quantitatively measured via LC-MS/MS with a synthesized novel disaccharide by us as the internal standard. With this established method for cell-based HS analysis, the qualified CIdoA analogue 12 was further evaluated.

The subject of data set [4] is heparan sulfate (HS) in GM02846 fibroblasts. The data set is described as follows: Cell-based HS analysis (LC-MS/MS of HS disaccharides) in GM02846 fibroblasts. The arrangement: species or system human. The conditions noted are these: combination with rh-α-IDUA.
From the text: as §2
(§4) Generally, accumulation of GAGs could be observed in MPS patients due to the dysfunction of any lysosomal enzymes involved in the degradation of GAGs including IDUA associated with MPSI, which means the enhanced efficacy of protein drugs by the co-treatment with protein stabilizers could be evaluated more directly by the improved reduction of GAGs than the increased activity of MPS-related lysosomal enzymes. As a result, a robust method for quantitative detection of HS, one of the types of GAGs excessively stored in MPS I patients, was established by us for the evaluation of potential therapeutic effect of compound 12 in MPSI.
as §3

The subject of data set [5] is heparan sulfate (HS) in GM01391 fibroblasts. The data set can be described thus: Cell-based HS analysis (LC-MS/MS of HS disaccharides) in GM01391 fibroblasts. The arrangement: species or system human. The conditions noted are these: co-treatment with rh-α-IDUA. The method, then: as §1
as §4, with “MPSI. […]” for “MPSI.”

Data set [6] has as its target T1, rh-α-IDUA in GM01391 fibroblasts. The data set can be described thus: Cell-based rh-α-IDUA stabilization: intracellular IDUA activity in GM01391 fibroblasts. The conditions noted are these: co-treatment with rh-α-IDUA; 1-day treatment followed by 8-day wash-out; data not shown.
[7] abbreviates: rh-α-IDUA 1 nM + compound 500 μM.

Chain of recombinant human α-IDUA (rh-α-IDUA, Aldurazyme®) (P35475 26-653): as above
T1 sequence (P35475 26-653): as above

Usually Ki stands for a measure of affinity in units of concentration, obtained from inhibition or displacement. A word on the IC50: it is the point on the concentration scale where inhibition reaches its midpoint. Consider `NCC[C@@H]1O[C@@H](C(=O)O)[C@@H](O)[C@H](O)[C@H]1O` [Compound 12], for which the “enhancement of IDUA activity versus rh-α-IDUA alone” value in data set [1] (1 day, 1-day wash-out) came out at 1.4 fold. Also, in data set [1] (setting [7]), the “IDUA activity with combined treatment versus rh-α-IDUA alone” value is given as “three”. Moreover, the “IDUA activity, dose-dependence of co-treatment versus rh-α-IDUA alone” value in data set [1] (rh-α-IDUA 1 or 0.1 nM) is “enhanced by the 12/rh-α-IDUA co-treatment in a dose-dependent manner”. Moreover, the Ki in data set [2] (against rh-α-IDUA) turned out to be 4 µM. Besides, the IC50 in data set [2] is 6.7 µM. Also, the “rh-α-IDUA activity on co-treatment” value in data set [3] is listed as “dose-dependently enhanced”. Also, the “reduction of HS versus rh-α-IDUA alone” value in data set [4] was “significant reduction of HS”. For the same molecule, the “reduction of accumulated HS versus rh-α-IDUA alone” value in data set [5] is on record as “statistically significantly improved reduction”. The “time course of enhancement of IDUA activity” value in data set [6] is “could be maintained”.
Regarding `NCC[C@@H]1N[C@@H](C(=O)O)[C@@H](O)[C@H](O)[C@H]1O` [Compound 23], the “IC50 (μM), NI = no inhibition at 250 μM” value in data set [2] (250 μM compound, rh-α-IDUA) is reported as “NI^a (NI refers to less than 10% inhibition at 250 μM.)”.
In the case of `O=C(Cc1ccc(OP(=O)(O)O)cc1)NCC[C@@H]1O[C@@H](C(=O)O)[C@@H](O)[C@H](O)[C@H]1O` [Compound 27a], the “change of IDUA activity on co-treatment versus rh-α-IDUA alone” value in data set [1] (1 day, 1-day wash-out) is “barely improved”. Moreover, the “IDUA activity on co-treatment at 500 μM” value in data set [1] (setting [7]) was “suppressed”. In addition, the IC50 in data set [2] was determined as 5.4 ± 0.5 µM.
For `O=C(Cc1cccc(OP(=O)(O)O)c1)NCC[C@@H]1O[C@@H](C(=O)O)[C@@H](O)[C@H](O)[C@H]1O` [Compound 27b], the “enhancement of IDUA activity versus rh-α-IDUA alone” value in data set [1] (1 day, 1-day wash-out) is reported as 1.6 fold. The “enhancement of IDUA activity at 500 μM” value in data set [1] (setting [7]) is given as 1.7 fold. For the same molecule, the IC50 in data set [2] came out at 4 ± 0.5 µM.
Regarding `O=C(Cc1ccccc1OP(=O)(O)O)NCC[C@@H]1O[C@@H](C(=O)O)[C@@H](O)[C@H](O)[C@H]1O` [Compound 27c], in data set [1] (1 day, 1-day wash-out), the “change of IDUA activity on co-treatment versus rh-α-IDUA alone” value is on record as “moderate reduction of IDUA activity”. In data set [2], the IC50 came out at 1 µM.

B1: rh-α-IDUA: recombinant human α-iduronidase, enzyme replacement protein (Aldurazyme®) (protein, UniProt P35475 28-653, looked up)
Alpha-L-iduronidase: APHLVHVDAARALWPLRRFWRSTGFCPPLPHSQADQYVLSWDQQLNLAYVGAVPHRGIKQVRTHWLLELVTTRGSTGRGLSYNFTHLDGYLDLLRENQLLPGFELMGSASGHFTDFEDKQQVFEWKDLVSSLARRYIGRYGLAHVSKWNFETWNEPDHHDFDNVSMTMQGFLNYYDACSEGLRAASPALRLGGPGDSFHTPPRSPLSWGLLRHCHDGTNFFTGEAGVRLDYISLHRKGARSSISILEQEKVVAQQIRQLFPKFADTPIYNDEADPLVGWSLPQPWRADVTYAAMVVKVIAQHQNLLLANTTSAFPYALLSNDNAFLSYHPHPFAQRTLTARFQVNNTRPPHVQLLRKPVLTAMGLLALLDEEQLWAEVSQAGTVLDSNHTVGVLASAHRPQGPADAWRAAVLIYASDDTRAHPNRSVAVTLRLRGVPPGPGLVYVTRYLDNGLCSPDGEWRRLGRPVFPTAEQFRRMRAAEDPVAAAPRPLPAGGRLTLRPALRLPSLLLVHVCARPEKPPGQVTRLRALPLTQGQLVLVWSDEHVGSKCLWTYEIQFSQDGKAYTPVSRKPSTFNLFVFSPDTGAVSGSYRVRALDYWARPGPFSDPVPYLEVPVPRGPPSPGNP
Take B1: in data set [1] (rh-α-IDUA 0.1 nM, 1 day, 1-day wash-out), the “IDUA activity after treatment with rh-α-IDUA alone” value is reported as “dramatically increased”.

For the origin of these results see patent publication US20250243227A1, “IDURONIDASE STABILIZERS AND USES THEREOF” (Academia Sinica, priority 2022, published 2025).
